Data from patent publication US6664244B1, “Pet foods” (Nihon Shokuhin Kako Co., Ltd., priority 1998, dated 2003).

Columns and labels:
[1] = system: beagles; assay: Experiments on suppression of obesity (body weight change, high-fat feed); type: in vivo; conditions: healthy beagles; Hills c/d Dry 200 g + lard 117 g basic feed, corn starch replaced with 23.4 g β-CD; about 400 kcal per metabolic body weight per day; vs reference group (FIG. 1)
Experimental: Ten healthy beagles were divided in 2 groups consisting of 5, respectively. Hills c/d Dry were fed for 1 week before the experiment. As for feeds in this experiment, the one in which 200 g of Hills c/d Dry blended with 117 g of lard was used as a basic feed. In the reference group, the one in which 34 g of cornstarch was added to the above basic feed is used. In the experimental group, the feed used is the same one as used in the reference group except that all corn starch was replaced with 23.4 g of β-CD (β-cyclodextrin). The feeding amount for one dog, per day, was controlled without changing the ratio of components so that the amount of the basic feed (Hills c/d Dry and lard) is about 400 kcal per metabolic body weight (kg0.75)

[2] = system: beagles; assay: Experiments on solution of obesity (body weight change in obese beagles); type: in vivo; conditions: beagles made obese by 2 months of high-energy foods; feed with 23.4 g corn starch replaced with β-CD; about 275 kcal per metabolic body weight per day (FIG. 2)
Excerpt: Ten beagles were fed high-energy foods for 2 months before the experiment, so that they became obese. At the beginning of the experiment, they were divided in […] so as to make uniform the average body weight of each group as much as possible. The feed used in the reference group was the same as that of Experiment 1 and the same feed in which 23.4 g of corn starch was replaced with β-CD was used in the β-CD group. The feeding amount for one dog, per day was controlled without changing the ratio of components so that the amount of the basic feed (Hills c/d Dry and lard) is about 275 kcal per metabolic body weight (kg0.75).

## OC[C@H]1O[C@@H]2O[C@H]3[C@H](O)[C@@H](O)[C@@H](O[C@H]4[C@H](O)[C@@H](O)[C@@H](O[C@H]5[C@H](O)[C@@H](O)[C@@H](O[C@H]6[C@H](O)[C@@H](O)[C@@H](O[C@H]7[C@H](O)[C@@H](O)[C@@H](O[C@H]8[C@H](O)[C@@H](O)[C@@H](O[C@H]1[C@H](O)[C@H]2O)O[C@@H]8CO)O[C@@H]7CO)O[C@@H]6CO)O[C@@H]5CO)O[C@@H]4CO)O[C@@H]3CO [β-CD, β-cyclodextrin]
[1]
  increase of body weight: significantly suppressed
[2]
  body weight: significantly reduced
